Reference: patent US6432446B1, “Non-arrhythmogenic metabolite of oxybutynin” (Bridge Pharma, Inc., priority 2000, dated 2002)

Columns and labels:
[1] = drugs withdrawn from the market because of this side effect; cited from earlier work
[2] = isomers of racemic oxybutynin; cited from earlier work
[3] = tested on: Male guinea pigs; experiment: Cardiac side effects: QTc interval of the EKG in anesthetized guinea pigs; format: in vivo, guinea pig; conditions: intravenous infusion over 30 min
Method: Male guinea pigs (450-600 g) are anesthetized with freshly prepared dialurethane sodium. The jugular vein is catheterized for iv administration of test drugs and the trachea is exposed and cannulated. Subdermal electrodes are positioned for Lead II electrocardiogram recording, monitored on a Grass Polygraph recorder, set at a paper speed of 50 nmmsec. The animals are allowed to stabilize for 30 minute after completion of surgery, and three baseline EKG recordings are then made at 10-minute intervals. The animals are then given a dose of the test compound or vehicle as an intravenous inflision over 30 min. EKG recordings are used to determine QT intervals and heart rates. To compensate for variations in heart rates, QTc intervals are calculated from QT- and RR-intervals as known to those skilled in the art. Prolongation of QTc is indicative of a prolonged action potential, caused by an inhibition of the delayed rectifier potassium channel. Prolongation of QTc is the known cause of Torsades de Pointes ventricular fibrillation by drugs such as terfenadine and astemizole (now withdrawn from the market).

[4] = tested on: Strips of intestinal smooth muscle tissue
Method: 2. Functional Characterization of Antimuscarinic/Antispasmodic Activity.
Strips of intestinal smooth muscle tissue are removed from the body of male Hartley guinea pigs weighing 400-600 g. The strips are suspended in an oxygenated buffer of the following composition, in mM: NaCl, 133; KCl, 4.7; CaCl2, 2.5; MgSO4, 0.6; NaH2PO4, 1.3; NaHCO3, 16.3; and glucose, 7.7, or a similar balanced physiological solution. They are maintained at constant temperature. Contractions are recorded with isometric transducers (Model FT-10) on an ink-writing polygraph.
In each experiment up to seven strips are removed from a single animal, suspended in individual tissue chambers and allowed to equilibrate with the bathing solution for one hour before proceeding with the experiment.
In order to assess the viability of each tissue and to serve as a frame of reference, contractions of each strip of tissue are recorded initially in response to exposure to a tissue medium in which the NaCl was replaced by KCl to yield a concentration of 137.7 mM KCl in the medium. […] Then, leaving one strip untreated and/or one strip exposed to the test solution to serve as control tissue(s), the remaining strips each are exposed for one hour to one concentration of an antagonist. Finally, the responses to increasing concentrations of carbachol followed by exposure to 137.7 mM KCl are recorded a second time. To determine whether antagonists decrease the peak response to agonists, the peak tension developed by each strip during the second set of determinations is expressed as a percent of the peak tension developed during the first concentration-effect determination. Then, for each antagonist the resultant data are analyzed using standard statistical methodology.

[5] = Risk for torsades des pointes of drugs combined with oxybutynin
[6] = tested on: patients with conditions characterized by involuntary bladder contractions; conditions: clinical studies; cited from earlier work
[7] = tested on: human recombinant muscarinic receptor subtypes; experiment: Ligand binding studies: muscarinic receptors; conditions: compared with the des-ethyl metabolite
Method: 1. Ligand Binding Studies: Muscarinic Receptors.
The experiments are carried out on membranes prepared from SF9 cells infected with baculovirus to express human recombinant muscarinic receptor subtypes. After incubation with the test article and the proper radioligand and washing, bound radioactivity is determnined with a liquid scintillation counter, using a commercial scintillation cocktail. The specific radioligand binding to each receptor is defined as the difference between total binding and nonspecific binding determined in the presence of an excess of unlabelled ligand. IC50 values (concentrations required to inhibit 50% of specific binding) are determined by non linear regression analysis of the competition curves. These parameters are obtained by curve fitting using Sigmaplot software.

[8] = tested on: benzothiazepine receptors; experiment: Affinity for benzothiazepine receptors; format: binding; conditions: compared with the des-ethyl metabolite

CC(CC(c1ccccc1)c1ccccc1)NC(C)(C)C (stereo not drawn) [terodiline]
prolongation of QTc [1]: found to cause prolongation of QTc

COc1ccc(CCN2CCC(Nc3nc4ccccc4n3Cc3ccc(F)cc3)CC2)cc1 [astemizole]
prolongation of QTc [1]: found to cause prolongation of QTc

CCN(CC)CC#CCOC(=O)[C@](O)(c1ccccc1)C1CCCCC1 (single isomer, unassigned) [R(−)-isomer, R(−)-oxybutynin]
anticholinergic activity [2]: practically all of the anticholinergic activity of OXY resides in the R(−)-isomer | prolongation of the QTc-interval of the EKG [3]: cause a prolongation of the QTc-interval

CCNCC#CCOC(=O)[C@](O)(c1ccccc1)C1CCCCC1 (single isomer, unassigned) [R-isomer of the des-ethyl metabolite of oxybutynin]
antimuscarinic / anticholinergic activity [4]: potent antimuscarinic agent

CC(=O)N1CCN(c2ccc(OCC3COC(Cn4ccnc4)(c4ccc(Cl)cc4Cl)O3)cc2)CC1 (stereo not drawn) [ketoconazole]
risk for torsades des pointes [5]: further increase the risk for torsades des pointes

CCN(CC)CC#CCOC(=O)C(O)(c1ccccc1)C1CCCCC1 (racemic) [oxybutynin, 4-diethylamino-2-butynyl cyclohexylphenylglycolate]
bladder capacity [6]: increases bladder capacity | frequency of involuntary contractions of the detrusor muscle [6]: diminishes the frequency of involuntary contractions of the detrusor muscle | initial desire to void [6]: delays the initial desire to void | prolongation of the QTc-interval of the EKG [3]: causes a prolongation of the QTc-interval

CCNCC#CCOC(=O)C(O)(c1ccccc1)C1CCCCC1 (racemic) [desethyl metabolite of oxybutynin, 4-ethylamino-2-butynyl cyclohexyl-phenylglycolate]
prolongation of the QTc-interval of the EKG [3]: free from said cardiac side effect

CCNCC#CCOC(=O)[C@@](O)(c1ccccc1)C1CCCCC1 (single isomer, unassigned) [S-isomer of the des-ethyl metabolite of oxybutynin]
antimuscarinic / anticholinergic activity [4]: weak anticholinergic activity | spasmolytic activity [4]: spasmolytic agent

CCN(CC)CC#CCOC(=O)[C@@](O)(c1ccccc1)C1CCCCC1 (single isomer, unassigned) [S(+)-isomer, S(+)-oxybutynin]
spasmolytic activity [2]: direct spasmolytic activity | prolongation of the QTc-interval of the EKG [3]: cause a prolongation of the QTc-interval

didesethyloxybutynin [didesethyl metabolite]
affinity for muscarinic receptors [7]: somewhat lower affinity | affinity for benzothiazepine receptors [8]: somewhat lower affinity | prolongation of the QTc-interval of the EKG [3]: does not prolong the QTc interval
